Source: patent publication US20050249675A1, “Mucin synthesis inhibitors” (priority 2003, published 2005)
“Also recorded” adds a separate entry of the source. Read-outs that look alike come from different tables or passages of the source.

Columns and labels:
[1] = tested on: MUC5A/C secretion in hCLCA1 expressing H292 cells; test: MUC5A/C secretion by ELLA in hCLCA1 expressing H292 cells; format: cell-based, human; design: key to ELLA: (+) = inhibition; (−) = no inhibition
H292 clone 15 cells [2] = test: ELLA for MUC5AC, H292 clone 15 cells (Example 11); format: cell-based, human; settings: MUC5AC in conditioned media, 48 hours, average of 3 experiments
Description: ELLA (Enzyme-Linked Lectin Assay) was used to determine the inhibitory effect of compounds on mucus production by H292 clone 15 cells. H292 clone 15 cells, a subclone from human pulmonary mucoepidermoid carcinoma cells overexpressing hCLCA1, were grown to confluent, followed by incubation with increasing concentrations of compounds for 48 hours. Conditioned media were collected and MUC5AC (the major secretory mucin in lungs) content was determined by ELLA measurement as described below. 96 well microtiter plates were coated with a mouse monoclonal antibody against human MUC5AC (1-13M1, NeoMarkers), then incubated with test conditioned media. Bound MUC5AC was detected by horseradish peroxidase-conjugated soybean lectin that has a high affinity towards highly-glycosylated proteins such as MUC5AC. Conversion of peroxidase substrate TMB (Tetramethylbenzidine Base) was quantified by reading at 450 nm. O.D. (optical density) readings were plotted against concentrations of compounds. Linear regression was used to derive the concentration at which O.D. was reduced by 50% (IC50) when compared to vehicle-treated cells.

H292 clone 15 cells [3] = test: Alamar Blue cytotoxicity; settings: for Est. LD50 (Alamar Blue): H292 clone 15 cells, 48 hours, average of 3 experiments
Muc5b = test: Inhibition of Muc5b expression; format: cell-based; design: key: (+) = inhibition; (−) = no inhibition; settings: Table 2
Description: The effects of talniflumate derivatives on mucin production were also assayed for changes in ELLA and IC50 (Table 2) as described in the methods above.

NCI-H292/hCLCA1 cells = test: AB/PAS staining of mucous glycoconjugates in NCI-H292/hCLCA1 cells; format: cell-based, human; settings: NFA 100 μM, MFA 125 or 250 μM, talniflumate 12.5, 25 or 50 μM; vs untreated cells
Description: For the determination of mucous glycoconjugate production, NCI-H292/ctl and NCI-H292/hCLCA1 (AAF 15) cells were cultured in 24-well plates for 3 days. Cells were then fixed with Formalin and mucous glycoconjugates were visualized by AB/PAS staining (Sigma). […] For chloride channel blockage studies, cells were cultured in the presence of niflumic acid (NFA) (Sigma) at 100 μM concentration, mefanamic acid (MFA) at 125 or 250 μM or talniflumate at 12.5, 25 or 50 μM, or media alone.
For the determination of mucous glycoconjugate production, NCI-H292/hCLCA1 cells were cultured in 24-well plates for 3 days with at concentrations of 0 to 150 μM of the talniflumate enantiomers or media alone (control). Cells were then fixed with Formalin and mucous glycoconjugates were visualized by AB/PAS staining (Sigma). […] In this assay both enantiomers were seen to inhibit muco-glycoconjugate production at concentrations>40 μM.

MUC2 = format: cell-based; settings: LTA from S. aureus; FIG. 22
[4] = tested on: mice sensitized to Aspergillus fumigatus; test: Aspergillus fumigatus murine asthma model, talniflumate chow; format: in vivo; settings: oral; for Lung eosinophilia by bronchoalveolar lavage: talniflumate chow, vs sensitized mice fed standard chow
[5] = tested on: CF mice (CF knock-out mice and CF AF508 mice); test: CF mice body weight and survival on talniflumate chow; format: in vivo; settings: approximate dose of 100 mg/kg per os in chow
Description: Within two weeks of weaning, the osmotic agent treatment was discontinued and the mice were either placed on talniflumate containing chow or control chow. The CF mice consuming control chow lost 10-15% body weight and died (CF knock-out) or were euthanized (CF AF508) due to the animal's moribund state within 7 days post-osmotic agent. In contrast, the CF mice that consumed talniflumate (approximate dose of 100 mg/kg per os) gained 8-12% body weight and survived at least 26 days, at which time they were sacrificed to evaluate histopathology (see FIG. 20).

[6] = biological target: T1, human chloride channel hCLCA1 (Homo sapiens, UniProt A8K7I4); test: Patch clamp chloride current, NCI-H292 cell expressing hCLCA1; format: cell-based; settings: 5 micromolar talniflumate; 2 μM ionomycin and 2 mM calcium; positive voltage
T1 construct: expressed in transfected cells; host or cells: NCI-H292 (human pulmonary mucoepidermoid carcinoma)
T1 sequence (A8K7I4 22-914): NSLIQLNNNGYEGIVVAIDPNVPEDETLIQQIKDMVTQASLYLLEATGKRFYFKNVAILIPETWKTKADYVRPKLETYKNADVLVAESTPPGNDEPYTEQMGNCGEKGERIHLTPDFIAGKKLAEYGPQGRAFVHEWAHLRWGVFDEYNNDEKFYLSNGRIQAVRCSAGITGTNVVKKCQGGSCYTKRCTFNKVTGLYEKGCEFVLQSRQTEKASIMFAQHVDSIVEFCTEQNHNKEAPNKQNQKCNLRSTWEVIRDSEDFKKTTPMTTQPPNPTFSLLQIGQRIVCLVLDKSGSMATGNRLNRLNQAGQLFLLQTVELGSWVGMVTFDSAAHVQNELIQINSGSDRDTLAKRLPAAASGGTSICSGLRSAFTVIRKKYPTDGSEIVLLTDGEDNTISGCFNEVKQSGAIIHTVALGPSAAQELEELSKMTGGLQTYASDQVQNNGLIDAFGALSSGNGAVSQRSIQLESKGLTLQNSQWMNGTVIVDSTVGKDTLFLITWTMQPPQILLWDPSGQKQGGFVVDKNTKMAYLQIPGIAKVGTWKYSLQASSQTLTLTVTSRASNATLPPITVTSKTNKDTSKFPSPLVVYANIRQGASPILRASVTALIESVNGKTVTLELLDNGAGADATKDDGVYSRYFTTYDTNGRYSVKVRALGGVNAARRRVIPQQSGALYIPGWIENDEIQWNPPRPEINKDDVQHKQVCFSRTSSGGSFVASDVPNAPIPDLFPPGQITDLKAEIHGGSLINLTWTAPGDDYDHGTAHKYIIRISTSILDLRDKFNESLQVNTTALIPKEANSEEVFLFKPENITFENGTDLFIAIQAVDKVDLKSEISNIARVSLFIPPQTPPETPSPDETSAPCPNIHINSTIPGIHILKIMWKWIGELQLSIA
Description: An NCI-H292 cell transfected with a plasmid expressing the human chloride channel hCLCA1 was patch clamped and chloride current (I) was measured over a range of voltages (V). Substantial chloride current was invoked by the addition of 2 μM ionomycin and 2 mM calcium (circles) compared to baseline (squares), indicating activation of hCLCA1.

activated LHL4 cells = test: Eotaxin ELISA, activated LHL4 cells; format: cell-based; settings: increasing concentrations
Description: Activated LHL4 cells that express and secrete eotaxin have been produced and used to test for inhibitors of eotaxin production. These cells were assayed in vitro for eotaxin by an ELISA technique well known in the art (R&D Systems).

[7] = tested on: activated Caco2 cell line; test: Viability of activated Caco2 cells; format: cell-based; settings: even higher concentrations of NFA; FIG. 3
IL9 transgenic mice = test: Mucin production in lungs of IL9 transgenic mice; format: in vivo; settings: IT once daily for three days; NFA 100 μg
Description: Certified virus-free male and female IL9 transgenic mice (IL9TG5-FVB/N) 5-6 weeks of age were bred in our laboratories. Male and female FVB/N mice 5-6 weeks of age were purchased from Jackson Laboratories (Bar Harbor Me.). Animals were housed in high-efficiency, particulate filtered air and allowed free access to food and water for 3 to 7 days prior to experimental manipulation. The animal facilities were maintained at 22° C. and the light:dark cycle was automatically controlled (10:14 hour light:dark).
Animals were phenotyped, naïve, or 24 hrs after receiving intra-tracheal (IT) shame (vehicle) treatment, or drugs in the same vehicle as was used in identically treated controls. Mice were treated IT once daily for three days. NFA (100 μg) or antibody to IL-9 were administered in PBS IT. Treatment responses were measured by the assessment of mucin inhibition by histologic exam (PAS staining of greater than 10 sections through the treated and control lungs or western blots of MUC 1, MUC2 and MUC3 expression from the same lungs.
The up-regulation of mucus production in the IL9 transgenic is specifically associated with increased steady-state mRNA levels of MUC2 and MUC5AC as shown by RT-PCR (FIG. 9).

[8] = tested on: mice sensitized by nasal aspiration of Aspergillus fumigatus antigen; test: Aspergillus fumigatus antigen murine asthma model, intra-tracheal NFA; format: in vivo; settings: 100 μg NFA intra-tracheal, days 0-21
activated Caco2 cells = test: PAS staining for mucin in activated Caco2 cells; settings: activated Caco2 cells; 100 μm for NFA and 300 μm for DIDS; vs untreated cells

## O=C1OC(CC(=O)c2cccnc2Nc2cccc(C(F)(F)F)c2)c2ccccc21 (stereo not drawn) [4 (MSI 2216)]
[1]; Table 2, ELLA, read-out: IC50
  IC50: 5 µM
[1]; Table 2, mucin production
  ELLA: +
H292 clone 15 cells [2]
  IC50: 3 µM
H292 clone 15 cells [3]
  Est. LD50 (Alamar Blue): 32 µM
Muc5b
  Inhibition of Muc5b Expression: +

## O=C1OC(OC(=O)c2cccnc2Nc2cccc(C(F)(F)F)c2)c2ccccc21 (racemic) [Talniflumate, talniflumate]
[1]
  Inhibition of MUC5A/C secretion / mucin production (figure legends): inhibition of mucin production
[1]; Homo sapiens, NCI-H292/hCLCA1 cells, 0 through 150 μM, 48 hours, FIG. 26, read-out: IC50, inhibition of MUC5A/C secretion
  IC50: 36 µM
H292 clone 15 cells [2]; Homo sapiens, NCI-H292
  IC50: 33 µM
NCI-H292/hCLCA1 cells
  PAS positive staining muco-glycoconjugates: significantly fewer positive staining muco-glycoconjugates
H292 clone 15 cells [3]
  Est. LD50 (Alamar Blue): 108 µM
H292 clone 15 cells [3]; NCI-H292/hCLCA1 cells, concentrations up to 150 μM, FIG. 27
  LD50 (Alamar Blue): > 150 µM
MUC2
  Lipoteichoic acid induction of MUC2 (luciferase RLU): modulated
[4]
  Lung eosinophilia by bronchoalveolar lavage: reduced the number of eosinophilic cells
[4]; listed as talniflumate
  Lung eosinophilia by bronchoalveolar lavage: inhibition of lung eosinophilia
[4]; talniflumate containing chow, Asp-sens mice
  Mucin (PAS) staining in lung: reduced mucin staining; also recorded: inhibition of mucin over production
[5]
  Body weight gain: 8-12%
[5]; then sacrificed
  Survival: at least 26 days
[6]
  Chloride Current: reduction in chloride current

## O=C(O)c1cccnc1Nc1cccc(C(F)(F)F)c1 [NFA, niflumic acid]
Activated LHL4 cells
  Eotaxin production: Significant inhibition; also recorded: blocks epithelial activation including chemokine production
[7]
  Viability of activated Caco2 cells: not affected; also recorded: did not effect their viability
NCI-H292/hCLCA1 cells
  PAS positive staining muco-glycoconjugates: significantly fewer positive staining muco-glycoconjugates
IL9 transgenic mice
  Mucin production in IL9 transgenic lungs: decreased mucin production
[8]
  Serum IgE levels: no effect
[8]; vs PBS
  Antigen-induced airway hyperresponsiveness: suppress airway hyperresponsiveness; also recorded: suppresses antigen-induced airway hyperresponsiveness
  BAL lung eosinophilia: suppress; also recorded: reduces antigen-induced lung eosinophilia
  Over-production of mucus in the lung caused by exposure to antigen: suppress the over-production of mucus; also recorded: blocks increased mucin expression
Activated Caco2 cells
  PAS positive staining mucin glycoconjugates: significantly fewer positive staining mucin glycoconjugates; also recorded: blocks mucin overproduction in vitro
